pIC50: −log10 of the molar value. Like-named read-outs stand apart in the source and are kept apart here. Bridge positions count the residues as written; N and C are the ends. Square brackets hold non-standard residues; d marks the D form. Ends that are not written are not given here. Peptide text beside a SMILES is read from it.

One test relates to αvβ5. Particulars: integrin expressed on K562 cells; cited from earlier work. From the text: (§1) Structure–activity relationship between LXW peptides and αvβ3 LXW analogs are a new category of RGD-containing cyclopeptides that binds specifically to αvβ3 integrin [7, 8]. The LXW analogs were designed and screened using OBOC combinatorial technology. Unlike other RGD cyclopeptide antagonists (i.e., cilengitide), LXW analogs are extended circular structures with a disulfide bond formed between two cysteines in the peptide sequence (cGRGDdXc). D-configuration of two cysteines in these analogs is essential for the antagonistic activity, which can force the cyclopeptide to adopt ...

In the next test the test system is αvβ3. The conditions noted are these: integrin expressed on K562 cells; cited from earlier work.
From the text: as §1

The next test has as its system αIIbβ3. The conditions noted are these: integrin expressed on K562 cells; cited from earlier work.
From the text: as §1

The next test relates to α5β1. The conditions noted are these: integrin expressed on K562 cells; cited from earlier work.
From the text: as §1

Test [1] concerns the target T1, αvβ3 integrin (Homo sapiens, UniProt P05106+P06756).
T1 construct: expressed in transfected cells; host or cells: K562 human leukemia cells (ATCC) transfected with αvβ3 integrin
Particulars: cited from earlier work. The text has this:
Targeting tumor cells or tumor vasculature by RGD-based strategies is a promising approach for delivering anticancer drugs or contrast agents for cancer therapy and diagnosis. RGD-based strategies include RGD peptide or peptidomimetic drugs, RGD-conjugates, and the grafting of the RGD peptide or peptidomimetic, as targeting ligand, at the surfa ... || (+ 4 further places)

Test [2] concerns αvβ3 integrin. Particulars: cited from earlier work. From the text: In our current study, 20 new LXW analogs were predicted via in silico screening with a high binding affinity to αvβ3 integrin. […] These X7 amino acids can be classified into two groups according to their side-chain structures—cyclic (total 13) and non-cyclic (aliphatic, total 7). […] Among the cyclic amino acids, the aromatic (mainly polycyclic excepted DPH ...

Test [3] has as its target T1, αvβ3 integrin. Description: Competitive binding assay by flow cytometry: competition with 1 μM biotinylated LXW7 binding to αvβ3-K562 cells. On the procedure:
To further verify our in silico screening results, we examined the binding of new LXW-analogous peptides to αvβ3 integrin in αvβ3-K562 cells. LXZ2 with DNTL as the X7 residue (Figure 6 left) was arbitrarily chosen and tested through flow cytometry for competing with 1 μM biotinylated LXW7 binding to αvβ3 integrin. […] The IC50 of the peptide inhibiting biotinylated LXW7 binding with K562/αvβ3+ cells was determined (Figure 6 right).
Figure 6 (A) Chemical structure of LXZ2; (B) Competitive binding assay. […] Positive control (cyan), cells were treated with 1μM biotinylated LXW7 and streptavidin-PE successively, and measured with flow cytometry. Negative control (red) represents cells without treatment of biotinylated LXW7. (C) IC50 measurement of LXW7 and LXZ2. The IC50s were determined with competitive binding assay by using a series of concentrations of LXW7 or LXZ2 competing with 1 μM biotinylated LXW7 binding to αvβ3-K562 cells. TEXT PRINTED IN THE PICTURE: (C) LXW7: IC50(μM): 1.53 | (C) LXZ2: IC50(μM): 0.31
The human leukemia cancer cells (K562, ATCC, Manassas, VA, USA) transfected with αvβ3-integrin were grown in the RPMI1640 medium and used for the assay as previously described. […] The samples were washed with 1 mL PBS containing 1% FBS for three times, then incubated with a 1:500 dilution of streptavidin-PE (1 mg/mL) for 30 min on ice followed by a single wash with 1 mL of PBS containing 1% FBS. Finally, the samples were analyzed via flow cytometry (Coulter XL-MCL). To measure the half-maximal inhibitory concentration (IC50) of the peptides, various diluted peptide solutions were mixed with 1.0 μM biotinylated LXW7, then incubated with cells, and followed by streptavidin-PE incubation. The samples were run through flow cytometer and Mean Fluorescence Intensity was decided for each individual sample. The IC50s were calculated from each sample based on the readings.
(In flow cytometry, cells or beads pass a laser one at a time.)

The mark [4] stands for this setting: concentration of peptide required for inhibition of 0.5 µmoL/L biotinylated LXW7 binding to K562/αvβ3+ cells by half, Table 1.
Setting [5] is: known IC50s from previous in vitro screening, binding to αvβ3 integrin, Table 3.
Setting [6] is: series of peptide concentrations competing with 1 μM biotinylated LXW7 binding to αvβ3-K562 cells, flow cytometry, streptavidin-PE, PBS, 10% FBS, 1 mM MnCl2, 30 min on ice, Figure 6C, read-out: IC50.

As for “cGRGDd-DNal1-c-NH2 (disulfide) [LXW64, cyclic octapeptide cGRGDd-DNal1-c-NH2 with 3-(1-naphthyl)-D-alanine at X7]”, the “binding to αvβ5” value in the test with αvβ5 was “weak or no binding”. Besides, the “binding with αvβ3” value with αvβ3 is reported as “significant positive binding”. In addition, the “binding to αIIbβ3” value in the test on αIIbβ3 was “weak or no binding”. Also, the “binding to α5β1” value in the test with α5β1 is “weak or no binding”. Besides, the “higher binding affinity than LXW7” value at αvβ3 integrin [1] (binding affinity to αvβ3 relative to LXW7) is 6 fold. Besides, the negative-log IC50 (pIC50) at αvβ3 integrin [1] (setting [4]) and at αvβ3 integrin [1] (setting [5]) was 7.15 in each case.

For the compound cilengitide, the pIC50 (as a rule, the negative decadic logarithm of the IC50, by convention in mol/L) with αvβ3 integrin [2] was 6.60.

As to “LXW26: LXW analog with D-Ile as X amino acid (CGRGDDIC; cyclic via D-Cys1-D-Cys8 disulfide; D-Cys1, D-Asp6, D-Ile7, D-Cys8; C-terminal amide (template cGRGDdXc-NH2, X = D-Ile))”, the pIC50 with αvβ3 integrin [1] (setting [5]) was 5.74.

For the compound “CGRGDdvC-NH2 (disulfide) (CGRGD[dD][dV]C-NH2; disulfide 1-8; N-terminus assumed; SMILES CC(C)[C@H]1NC(=O)[C@@H](CC(=O)O)NC(=O)[C@H](CC(=O)O)NC(=O)CNC(=O)[C@H](CCCNC(=N)N)NC(=O)CNC(=O)[C@@H](N)CSSC[C@@H](C(N)=O)NC1=O) [LXW11, LXW7 isomer CGRGDdvC-NH2 with two L-cysteines]”, the pIC50 with αvβ3 integrin [1] (setting [4]) and in the test with αvβ3 integrin [1] (setting [5]) was under 4.70 each time.

With `CC(C)[C@H]1NC(=O)[C@@H](CC(=O)O)NC(=O)[C@H](CC(=O)O)NC(=O)CNC(=O)[C@H](CCCNC(=N)N)NC(=O)CNC(=O)[C@H](N)CSSC[C@H](C(N)=O)NC1=O` [LXW7] (H-[dC]GRGD[dD][dV][dC]-NH2; disulfide 1-8), on αvβ3 integrin [3] (setting [6]), the pIC50 is 5.82.

Take `N=C(N)NCCC[C@@H]1NC(=O)CNC(=O)[C@H](N)CSSC[C@H](C(N)=O)NC(=O)[C@@H](Cc2c3ccccc3cc3ccccc23)NC(=O)[C@@H](CC(=O)O)NC(=O)[C@H](CC(=O)O)NC(=O)CNC1=O` [LXZ2]: the “binding affinity compared with LXW7 in competitive binding” value at αvβ3 integrin [3] (5 μM peptide competes with 1 μM biotinylated LXW7 binding to αvβ3-K562 cells, flow cytometry, Figure 6B) is recorded as “stronger binding affinity than the first lead—LXW7”. The pIC50 is 7.05 at αvβ3 integrin [3] (converted, referred to LXW7 in Table 3, read-out: converted IC50) and 6.51 on αvβ3 integrin [3] (setting [6]).

Values taken from article PMC7246635, “Structure–Activity Relationship of RGD-Containing Cyclic Octapeptide and αvβ3 Integrin Allows for Rapid Identification of a New Peptide Antagonist” (International Journal of Molecular Sciences, 2020).
